From patent US11530179B2, “Amorphous solid succinylated 3-(fatty acid amido)-2-hydroxy-1 -(protected hydroxy)-propane salts and methods of making the same” (Geron Corporation, priority 2019, dated 2022)

Columns and labels:
Format in all cases: physicochemical
[1] = Solubility in organic solvents; conditions: most organic solvents, at or below ambient temperature
[2] = Physical form at room temperature (isolation and storage)
[3] = Physical stability at room temperature under different relative humidity (RH); conditions: for Physical stability, Observation: 20-25° C., 300 mg in uncapped scintillation vial
Procedure: The physical stability of the amorphous 3-(palmitoyl amido)-2-hydroxy-1-(dimethoxytriphenylmethyl hydroxy)-propane lithium salts were tested at room temperature under different relative humidity (RH). 300 mg of amorphous 3-(palmitoyl amido)-2-hydroxy-1-(dimethoxytriphenylmethyl hydroxy)-propane lithium salt was placed in uncapped scintillation vials at 11% RH, 33% RH and 75% RH for days. (Table 1)

## CCCCCCCCCCCCCCCC(=O)NCC(COC(c1ccccc1)(c1ccc(OC)cc1)c1ccc(OC)cc1)OC(=O)CCC(=O)[O-].[Li+] (stereo not drawn) [succinylated 3-(palmitoyl amido)-2-hydroxy-1-(dimethoxytriphenylmethyl hydroxy)-propane lithium salt]
[1]
  Solubility in organic solvents: highly soluble
[2]
  Physical form: stable solids
[3]; 11% RH, examined by gently shaking once every day
  Physical stability, Observation: Remains free-flowing solids up to 14 days*
[3]; 33% RH, examined by gently shaking once every day
  Physical stability, Observation: Remains free-flowing solids up to 14 days*
[3]; 75% RH
  Physical stability, Observation: Turns to sticky after 30 min
[3]; room temperature, up to 33% relative humidity
  Physical stability: remained solid for an extended period of time
